18 molecules from patent US12297197B2, “Pyrazolopyridine compound as RET inhibitor and application thereof” (GUANGZHOU BAIYUNSHAN PHARMACEUTICAL HOLDINGS CO., LTD. …, priority 2019, dated 2025) can be followed below.

Each structure is given as a SMILES string.

For one assay, the target named is RET kinase (Homo sapiens, UniProt P07949). The assay is described as follows: In-vitro enzyme activity test, RET kinase. It counts as biochemical. To be noted: ATP 20 μM; 10 concentrations 3 μM to 0.152 nM. The protocol: (§1) The enzyme activity was detected by a Z′-LYTE™ kinase test, and inhibitory effects of the compounds onRET and RET (V804M) kinases were evaluated with an ICs value of each compound as an index.
(§2) The compounds used for RET and RET (V804M) kinase tests were diluted 3-fold, in 10 concentration gradients ranging from 3 μM to 0.152 nM; and the content of DMSO in detection reaction was 1%.
(§3) Basic reaction buffer, 20 mM 4-(2-hydroxyethyl)piperazine-1-ethanesulfonic acid (Hepes) buffer (pH 7.5), 10 mM MgCl2. 1 mM 1,2-bis[2-[bis(carboxymethyl)amino]ethoxy]ethane (EGTA), 0.02% polyoxyethylene lauryl ether (Brij35), 0.02 mg/mL bovine serum albumin, 0.1 mM of Na3VO4, 2 mM dithiothreitol (DTT) and 1% DMSO.
(§4) The compounds to be tested were dissolved in a 100% DMSO system to be diluted to 10 mM for further use. The solution was diluted by using Integra Viaflo Assist.
(§5) Test conditions: concentrations of RET kinase, peptide substrate CHKtide and adenosine triphosphate (ATP) were […], 1000 μM and 20 μM, respectively, and concentrations of RET (V804M) kinase, substrate peptide and ATP were […], 1000 μM and 30 μM, respectively.
(§6) Reaction process: compound solutions of different concentrations were added to a kinase/peptide solution prepared according to the test conditions, the obtained solution was incubated at room temperature for 20 minutes, and then 33P-ATP of corresponding concentrations were added, and the obtained solution was incubated at room temperature for 120 minutes. The radioactivity was detected by a filter-binding method.
(§7) The reaction was terminated by adding phosphoric acid (concentration, 0.5%) into a kinase reaction solution, and plate reading was carried out with an Envision instrument.
(§8) Data were converted into phosphorylation rate and inhibition rate, and the parametric curve was fitted by using GraphPad Software to obtain IC50 data of the compounds.

A further assay has as its target RET (V804M) kinase (Homo sapiens, UniProt P07949, V804M). In words: In-vitro enzyme activity test, RET (V804M) kinase. Particulars: ATP 30 μM; 10 concentrations 3 μM to 0.152 nM. It counts as biochemical. The protocol:
as §1, §2, §3, §4, §5, §6, §7, §8

Chain of RET kinase (P07949 29-1114): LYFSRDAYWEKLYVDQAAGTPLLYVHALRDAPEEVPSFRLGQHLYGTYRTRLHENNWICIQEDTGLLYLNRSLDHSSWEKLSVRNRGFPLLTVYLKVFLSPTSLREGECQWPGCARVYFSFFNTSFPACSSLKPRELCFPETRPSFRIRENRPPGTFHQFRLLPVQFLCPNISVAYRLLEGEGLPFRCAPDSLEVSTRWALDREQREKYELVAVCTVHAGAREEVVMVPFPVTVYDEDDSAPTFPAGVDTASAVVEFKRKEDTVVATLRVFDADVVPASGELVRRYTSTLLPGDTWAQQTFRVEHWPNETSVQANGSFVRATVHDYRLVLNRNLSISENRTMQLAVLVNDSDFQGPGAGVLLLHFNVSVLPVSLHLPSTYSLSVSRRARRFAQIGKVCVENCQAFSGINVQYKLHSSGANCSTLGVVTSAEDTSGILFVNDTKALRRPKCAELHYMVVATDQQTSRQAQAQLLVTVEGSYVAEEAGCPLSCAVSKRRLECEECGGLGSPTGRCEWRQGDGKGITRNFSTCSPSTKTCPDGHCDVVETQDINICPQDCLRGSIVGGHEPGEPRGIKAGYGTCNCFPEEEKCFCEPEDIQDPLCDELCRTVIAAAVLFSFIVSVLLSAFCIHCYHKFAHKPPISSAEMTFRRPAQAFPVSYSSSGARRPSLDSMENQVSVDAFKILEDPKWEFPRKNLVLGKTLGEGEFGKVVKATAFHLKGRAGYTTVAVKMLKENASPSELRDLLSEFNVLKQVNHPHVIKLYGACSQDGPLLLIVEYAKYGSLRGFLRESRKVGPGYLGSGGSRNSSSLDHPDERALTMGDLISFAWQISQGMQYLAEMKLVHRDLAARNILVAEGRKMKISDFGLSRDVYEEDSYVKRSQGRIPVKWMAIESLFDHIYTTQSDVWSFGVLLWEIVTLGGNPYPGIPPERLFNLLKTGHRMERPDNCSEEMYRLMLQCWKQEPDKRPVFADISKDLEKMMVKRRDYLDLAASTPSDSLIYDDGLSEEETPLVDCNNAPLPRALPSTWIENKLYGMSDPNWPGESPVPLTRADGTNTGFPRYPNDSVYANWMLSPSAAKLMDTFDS
Chain of RET (V804M) kinase (P07949 29-1114 V804M): as the sequence (P07949 29-1114) above, with V776M counted along it

As a reminder, the IC50 is the midpoint of a concentration-inhibition curve. Lower therefore signals greater potency. Regarding `COc1ccc(CN2C3CC2CN(c2ccc(-c4cc(C5=CCNCC5)cn5ncc(C#N)c45)cn2)C3)cn1` [Trifluoroacetate of compound 32], the IC50 against RET kinase worked out at 1.1 nM; at RET (V804M) kinase it was 3.15 nM.
In the case of `N#Cc1cnn2cc(C3=CCOCC3)cc(-c3ccc(N4CCN(Cc5c(F)cccc5F)CC4)nc3)c12` [Trifluoroacetate of compound 22], the IC50 against RET kinase was 0.47 nM; on RET (V804M) kinase it was 2.04 nM.
As to `COc1ccc(CN2C3CC2CN(c2ccc(-c4cc(N5CCOCC5)cn5ncc(C#N)c45)cn2)C3)cn1` [Trifluoroacetate of compound 9], the IC50 was 0.97 nM at RET kinase and 1.8 nM against RET (V804M) kinase.
Turning to `COc1cnc(CN2C3CC2CN(c2ccc(-c4cc(C5=CCOCC5)cn5ncc(C#N)c45)cn2)C3)cn1` [Compound 36], the results for the half-maximal inhibitory concentration (IC50) at RET kinase and on RET (V804M) kinase were 1.22 nM and 3.79 nM, respectively.
In the case of `COc1ccc(CN2C3CC2CN(c2cnc(-c4cc(N5CCC(F)(F)C5)cn5ncc(C#N)c45)cn2)C3)cn1` [Trill uoroacetale of compound 65], the IC50 against RET kinase came to 0.66 nM; against RET (V804M) kinase, 2.6 nM.
The corresponding values for `N#Cc1cnn2cc(C3=CCOCC3)cc(-c3ccc(N4CC5CC(C4)N5Cc4ccc5[nH]cnc5c4)nc3)c12` [Compound 37] are 2.3 nM and 15.6 nM.
For `CC(C)Oc1ccc(CN2C3CC2CN(c2ccc(-c4cc(N5CCOCC5)cn5ncc(C#N)c45)cn2)C3)cn1` [Trifluoroacetate of compound 12] the same measures were 0.61 nM and 0.51 nM.
As to `COc1ccc(CN2C3CC2CN(c2ccc(-c4cc(N5CCC(N(C)C)C5)cn5ncc(C#N)c45)cn2)C3)cn1` (stereo not drawn) [Triftuoroacelate of compound 72], the IC50 at RET kinase came out at 6.6 nM; at RET (V804M) kinase, 12 nM.
Take `COc1ccc(CN2C3CC2CN(c2ccc(-c4cc(C5=CCC(O)CC5)cn5ncc(C#N)c45)cn2)C3)cn1` (stereo not drawn) [Trifluoroacetate of compound 39]: the figures for the IC50 on RET kinase and against RET (V804M) kinase were 0.67 nM and 2.27 nM, respectively.
With `COc1ccc(CN2C3CC2CN(c2ccc(-c4cc(N5CC[C@@H](F)C5)cn5ncc(C#N)c45)cn2)C3)cn1` [Trifluoroacetate of compound 68], the IC50 came to 1.53 nM on RET kinase and 1.47 nM on RET (V804M) kinase.
Turning to `CCN1CC=C(c2cc(-c3ccc(N4CCN(Cc5c(F)cccc5F)CC4)nc3)c3c(C#N)cnn3c2)CC1` [Trifluoroacetate of compound 27], the figures for the IC50 at RET kinase and against RET (V804M) kinase were 4.37 nM and 33.6 nM, respectively.
Take `COc1ccc(CN2CCN(c3ccc(-c4cc(N5CCCC5)cn5ncc(C#N)c45)cn3)CC2)cn1` [Trifluoroacetate of compound 63]: the half-maximal inhibitory concentration (IC50) at RET kinase came to 1.6 nM; against RET (V804M) kinase it was 5.68 nM.
For `CCN1CCC(c2cc(-c3ccc(N4CCN(Cc5c(F)cccc5F)CC4)nc3)c3c(C#N)cnn3c2)C1` (stereo not drawn) [Trifluoroacetate of compound 7] the same measures were 239 nM and 1930 nM.
Consider `COc1ccc(CN2C3CC2CN(c2cnc(-c4cc(N5CC[C@@H](F)C5)cn5ncc(C#N)c45)cn2)C3)cn1` [Trifluoroacetate of compound 67], for which the half-inhibitory concentration (IC50) worked out at 1.09 nM against RET kinase and 1.6 nM against RET (V804M) kinase.
In the case of `COc1ccc(CN2C3CC2CN(c2cnc(-c4cc(C5CC5)cn5ncc(C#N)c45)cn2)C3)cn1` [Trifluoroacetate of compound 8], the IC50 is 1.15 nM at RET kinase and 3.14 nM against RET (V804M) kinase.
For `CN1CC=C(c2cc(-c3ccc(N4CCN(Cc5c(F)cccc5F)CC4)nc3)c3c(C#N)cnn3c2)CC1` [Trifluoroacetate of compound 26], the results for the concentration for half-maximal inhibition (IC50) against RET kinase and against RET (V804M) kinase were 3.82 nM and 22 nM, respectively.
Take `COc1ccc(CN2C3CC2CN(c2cnc(-c4cc(N5CCCC5)cn5ncc(C#N)c45)cn2)C3)cn1` [Triftuoroacetate of compound 64]: the 50% inhibitory concentration (IC50) against RET kinase stood at 1.23 nM; against RET (V804M) kinase, 2.67 nM.
For `N#Cc1cnn2cc(N3CCCC3)cc(-c3ccc(N4CCN(Cc5c(F)cccc5F)CC4)nc3)c12` [Triftuoroacetate of compound 57] the same measures were 1.98 nM and 8.11 nM.
